Values quoted from earlier work as cited in patent US12403113B2, “Composition containing creatine fatty ester for use in medicine” (COMMISSARIAT À L'ÉNERGIE ATOMIQUE ET AUX ÉNERGIES …, priority 2019, dated 2025).

Legend:
CrT−/y mice = details: 0.02 mg/g body/weight/day for 5 days, intracerebroventricular; preliminary
DMD patients = details: 5 g of creatine/day for 8 weeks, oral
[1] = test system: Huntington's disease patients; details: 8 g/day for 16 weeks, 64 patients
CTD patients = details: pure creatine

CCCCCCCCCCCCOC(=O)CN(C)C(=N)N [DCE, dodecyl creatine ester]
performance in the object recognition task (CrT−/y mice): significantly improves

CN(CC(=O)O)C(=N)N [creatine, 2-1(methylguanidino) acetic acid]
muscle Phosphocreatine/Inorganic Phosphate ratio (DMD patients): significantly improved | muscle strength in short term (DMD patients): preserved | tolerability (DMD patients; 18 patients vs placebo): well tolerated | serum 8-hydroxy-2′-deoxyguanosine (marker of oxidative DNA damage) [1]: marked decrease | health and longevity (mice): improves health and longevity | improvement in CTD patients (CTD patients): does not lead to any improvement
